Columns and labels:
Format in all cases: in vivo
Setaria faberi (SETFA) [1] = experiment: Post-emergence herbicidal glasshouse test; conditions: 250 g/Ha, evaluated after 13 days
Description: (§1) Seeds of a variety of test species are sown in standard soil in pots (Lolium perenne (LOLPE), Setaria faberi (SETFA), Alopecurus myosuroides (ALOMY), Echinochloa crus-galli (ECHCG), Avena fatua (AVEFA)). After cultivation for one day (pre-emergence) or after 8 days cultivation (post-emergence) under controlled conditions in a glasshouse (at 24/16° C., day/night; 14 hours light; 65% humidity), the plants are sprayed with an aqueous spray solution derived from the formulation of the technical active ingredient in acetone/water (50:50) solution containing 0.5% Tween 20 (polyoxyethelyene sorbitan monolaurate, CAS RN 9005-64-5). Compounds are applied at 250 g/h. The test plants are then grown in a glasshouse under controlled conditions in a glasshouse (at 24/16° C., day/night; 14 hours light; 65% humidity) and watered twice daily. After 13 days for pre and post-emergence, the test is evaluated for the percentage damage caused to the plant. The biological activities are shown in the following table on a five point scale (5=80-100%; 4=60-79%; 3=40-59%; 2=20-39%; 1=0-19%). NT=not tested.

[2] = system: Echinochloa crus-galli (ECHCG); experiment: Post-emergence herbicidal glasshouse test; conditions: 250 g/Ha, evaluated after 13 days
Description: as §1

[3] = system: Alopecurus myosuroides (ALOMY); experiment: Post-emergence herbicidal glasshouse test; conditions: 250 g/Ha, evaluated after 13 days
Description: as §1

Avena fatua (AVEFA) [4] = experiment: Post-emergence herbicidal glasshouse test; conditions: 250 g/Ha, evaluated after 13 days
Description: as §1

Lolium perenne (LOLPE) [5] = experiment: Post-emergence herbicidal glasshouse test; conditions: 250 g/Ha, evaluated after 13 days
Description: as §1

barley crop plants = experiment: Crop phytotoxicity comparison, post-emergence
Description: as §1
(§2) Using procedures outlines above, wheat and barley crop plants are treated, post-emergence with compounds A1, A3 or A8 of the present invention or comparator compound C1 (Compound A-38 from WO2014/096289) at the application rates indicated. The compounds were also applied in conjunction with the safener compound cloquintocet-mexyl (CQC) at 50 g/ha.

wheat crop plants = experiment: Crop phytotoxicity comparison, post-emergence
Description: as §1, §2

Setaria faberi (SETFA) [6] = experiment: Pre-emergence herbicidal glasshouse test; conditions: 250 g/Ha, evaluated after 13 days
Description: as §1

[7] = system: Echinochloa crus-galli (ECHCG); experiment: Pre-emergence herbicidal glasshouse test; conditions: 250 g/Ha, evaluated after 13 days
Description: as §1

[8] = system: Alopecurus myosuroides (ALOMY); experiment: Pre-emergence herbicidal glasshouse test; conditions: 250 g/Ha, evaluated after 13 days
Description: as §1

Avena fatua (AVEFA) [9] = experiment: Pre-emergence herbicidal glasshouse test; conditions: 250 g/Ha, evaluated after 13 days
Description: as §1

Lolium perenne (LOLPE) [10] = experiment: Pre-emergence herbicidal glasshouse test; conditions: 250 g/Ha, evaluated after 13 days
Description: as §1

[11] = post-emergence, summary of Table B3
[12] = post-emergence, 60 g/ha + safener cloquintocet-mexyl (CQC) at 50 g/ha

Compound | percentage damage caused to the plant, five point scale, SETFA (Setaria faberi (SETFA) [1]) | percentage damage caused to the plant, five point scale, ECHCG [2] | percentage damage caused to the plant, five point scale, ALOMY [3] | percentage damage caused to the plant, five point scale, AVEFA (Avena fatua (AVEFA) [4]) | percentage damage caused to the plant, five point scale, LOLPE (Lolium perenne (LOLPE) [5]) | damage to barley crop compared to prior art compound C1 (barley crop plants; in vivo) | damage to wheat crop compared to prior art compound C1 (wheat crop plants; in vivo) | percentage damage caused to the plant, five point scale, SETFA (Setaria faberi (SETFA) [6]) | percentage damage caused to the plant, five point scale, ECHCG [7] | percentage damage caused to the plant, five point scale, ALOMY [8] | percentage damage caused to the plant, five point scale, AVEFA (Avena fatua (AVEFA) [9]) | percentage damage caused to the plant, five point scale, LOLPE (Lolium perenne (LOLPE) [10]) | % phytotoxicity observed, Barley (barley crop plants; post-emergence, 30 g/ha) | % phytotoxicity observed, Barley (barley crop plants; post-emergence, 60 g/ha) | damage to barley crop compared to prior art compound C1 (barley crop plants; [11]) | % phytotoxicity observed, Wheat (wheat crop plants; post-emergence, 30 g/ha) | % phytotoxicity observed, Wheat (wheat crop plants; post-emergence, 60 g/ha) | % phytotoxicity observed, Wheat (wheat crop plants; [12]) | damage to wheat crop compared to prior art compound C1 (wheat crop plants; [11])
CC#Cc1cc(C)c(C2C(=O)CC3(CCN(C(=O)/C=N/OC)CC3)CC2=O)c(C)c1 [Compound A3, 9-(2,6-dimethyl-4-prop-1-ynyl-phenyl)-3-[(2E)-2-methoxyiminoacetyl]-3-azaspiro[5.5]undecane-8,10-dione] | 5 (5=80-100%) | 5 (5=80-100%) | 5 (5=80-100%) | 5 (5=80-100%) | 5 (5=80-100%) | significantly less damaging | significantly less damaging | 5 (5=80-100%) | 5 (5=80-100%) | 4 (4=60-79%) | 5 (5=80-100%) | 5 (5=80-100%) | – | – | – | – | – | – | –
CC#Cc1cc(C)c(C2C(=O)CC3(CCN(C(=O)/C(C)=N/Oc4ccccn4)CC3)CC2=O)c(C)c1 [Compound A6, 9-(2,6-dimethyl-4-prop-1-ynyl-phenyl)-3-[(2E)-2-(2-pyridyloxyimino)propanoyl]-3-azaspiro[5.5]undecane-8,10-dione] | 5 (5=80-100%) | 5 (5=80-100%) | 5 (5=80-100%) | 5 (5=80-100%) | 5 (5=80-100%) | – | – | 5 (5=80-100%) | 5 (5=80-100%) | 5 (5=80-100%) | 5 (5=80-100%) | 5 (5=80-100%) | – | – | – | – | – | – | –
CC#Cc1cc(C)c(C2C(=O)CC3(CCN(C(=O)C(C)=NN(C)C)CC3)CC2=O)c(C)c1 [Compound A8, 3-[2-(dimethylhydrazono)propanoyl]-9-(2,6-dimethyl-4-prop-1-ynyl-phenyl)-3-azaspiro[5.5]undecane-8,10-dione] | 5 (5=80-100%) | 5 (5=80-100%) | 5 (5=80-100%) | 5 (5=80-100%) | 5 (5=80-100%) | – | – | 5 (5=80-100%) | 5 (5=80-100%) | 5 (5=80-100%) | 5 (5=80-100%) | 5 (5=80-100%) | 0% | 0% | significantly less damaging | 0% | 10% | 10% | significantly less damaging
CC#Cc1cc(C)c(C2C(=O)CC3(CCN(C(=O)/C(C)=N\O)CC3)CC2=O)c(C)c1 [Compound A5] | 5 (5=80-100%) | 5 (5=80-100%) | 5 (5=80-100%) | 5 (5=80-100%) | 5 (5=80-100%) | – | – | 5 (5=80-100%) | 5 (5=80-100%) | 4 (4=60-79%) | 5 (5=80-100%) | 5 (5=80-100%) | – | – | – | – | – | – | –
CC#Cc1cc(C)c(C2C(=O)CC3(CCN(C(=O)/C(=N\OC)C(C)(C)C)CC3)CC2=O)c(C)c1 [Compound A7] | 5 (5=80-100%) | 5 (5=80-100%) | 4 (4=60-79%) | 3 (3=40-59%) | 5 (5=80-100%) | – | – | 5 (5=80-100%) | 5 (5=80-100%) | 4 (4=60-79%) | 2 (2=20-39%) | 5 (5=80-100%) | – | – | – | – | – | – | –
CC#Cc1cc(C)c(C2C(=O)CC3(CCN(C(=O)C(C)=NOCC)CC3)CC2=O)c(C)c1 [Compound A2] | 5 (5=80-100%) | 5 (5=80-100%) | 5 (5=80-100%) | 5 (5=80-100%) | 5 (5=80-100%) | – | – | 5 (5=80-100%) | 5 (5=80-100%) | 5 (5=80-100%) | 5 (5=80-100%) | 5 (5=80-100%) | – | – | – | – | – | – | –
CC#Cc1cc(C)c(C2C(=O)CC3(CCN(C(=O)/C(C)=N/O)CC3)CC2=O)c(C)c1 [Compound A4] | 5 (5=80-100%) | 5 (5=80-100%) | 5 (5=80-100%) | 5 (5=80-100%) | 5 (5=80-100%) | – | – | 5 (5=80-100%) | 5 (5=80-100%) | 5 (5=80-100%) | 5 (5=80-100%) | 5 (5=80-100%) | – | – | – | – | – | – | –
CC#Cc1cc(C)c(C2C(=O)CC3(CCN(C(=O)C(C)=NOCC#N)CC3)CC2=O)c(C)c1 [Compound A10] | 5 (5=80-100%) | 5 (5=80-100%) | 5 (5=80-100%) | 5 (5=80-100%) | 5 (5=80-100%) | – | – | 4 (4=60-79%) | 4 (4=60-79%) | 4 (4=60-79%) | 1 (1=0-19%) | 1 (1=0-19%) | – | – | – | – | – | – | –
CC#Cc1cc(C)c(C2C(=O)CC3(CCN(C(=O)C(C)=NOCCOC)CC3)CC2=O)c(C)c1 [Compound A11] | 5 (5=80-100%) | 5 (5=80-100%) | 5 (5=80-100%) | 5 (5=80-100%) | 5 (5=80-100%) | – | – | 5 (5=80-100%) | 5 (5=80-100%) | 5 (5=80-100%) | 3 (3=40-59%) | 5 (5=80-100%) | – | – | – | – | – | – | –
CC#Cc1cc(C)c(C2C(=O)CC3(CCOCC3)CC2=O)c(C)c1 [Compound C1, reference compound] | – | – | – | – | – | – | – | – | – | – | – | – | 80% | 90% | – | 40% | 70% | 60% | –
CC#Cc1cc(C)c(C2C(=O)CC3(CCN(C(=O)/C(C)=N/OC4CCOCC4)CC3)CC2=O)c(C)c1 [Compound A9] | 5 (5=80-100%) | 5 (5=80-100%) | 5 (5=80-100%) | 5 (5=80-100%) | 4 (4=60-79%) | – | – | 4 (4=60-79%) | 3 (3=40-59%) | 5 (5=80-100%) | 2 (2=20-39%) | 3 (3=40-59%) | – | – | – | – | – | – | –

Reference: patent publication US12161115B2, “Herbicidal compounds” (SYNGENTA CROP PROTECTION AG, priority 2019, dated 2024)
